Experimental data as given in patent US20250326744A1, “PIPERAZINE DERIVATIVE OR SALT THEREOF, AND PHARMACEUTICAL COMPOSITION” (priority 2022, published 2025).
Where a name gives a salt, the structure may show the parent alone.

Assays:
mexB (PA) strain = experiment: Combinational effect with antibacterial agent against Pseudomonas aeruginosa (Test Examples 2 and 4): mexB (PA) strain with LVFX, TC or AZT at 1/4 MIC, EC99; assay type: cell-based; conditions: for EC99, mexB (PA), AZT / EC99, mexB (PA), LVFX / EC99, mexB (PA), TC: Table 52, Test Example 2, 16 to 20 hours culture, OD595; for EC99, mexB (PA), AZT / EC99, combinational effect with AZT, mexB (PA): combined with AZT at 1/4 MIC; for EC99, mexB (PA), LVFX / EC99, combinational effect with LVFX, mexB (PA): combined with LVFX at 1/4 MIC; for EC99, mexB (PA), TC / EC99, combinational effect with TC, mexB (PA): combined with TC at 1/4 MIC; for EC99, combinational effect with AZT, mexB (PA) / EC99, combinational effect with LVFX, mexB (PA) / EC99, combinational effect with TC, mexB (PA): mexB (PA) strain, Test Example 4
Summary of the method: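 P. aeruginosa mexB (PA) strain, lacking MexCD-OprJ, MexEF-OprN and MexXY and overexpressing MexAB-OprM, grown 16–20 h in CAMHB (10^4–5 CFU/well) with LVFX, TC or AZT at ¼ MIC plus test compound at 0–800 μM. Growth read as OD595; EC99 is the lowest compound concentration giving ≥99% growth inhibition.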

S-3769 strain = experiment: Combinational effect with antibacterial agent against Pseudomonas aeruginosa (Test Examples 2 and 4): S-3769 strain with AMK or GM at 1/4 MIC, EC99; assay type: cell-based; conditions: for EC99, S-3769 strain, AMK / EC99, S-3769 strain, GM: Table 52, Test Example 2, 16 to 20 hours culture, OD595; for EC99, S-3769 strain, AMK / EC99, combinational effect with AMK, S-3769 strain: combined with AMK at 1/4 MIC; for EC99, S-3769 strain, GM / EC99, combinational effect with GM, S-3769 strain: combined with GM at 1/4 MIC; for EC99, combinational effect with AMK, S-3769 strain / EC99, combinational effect with GM, S-3769 strain: Test Example 4
Summary of the method: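 P. aeruginosa S-3769 (clinical isolate, MexY overexpressed) grown 16–20 h in CAMHB, 10^4 to 5 CFU/well, with AMK or GM at ¼ MIC plus test compound 0–800 μM. Growth read as OD595; EC99 is the lowest compound concentration giving ≥99% growth inhibition.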

Row | Compound | EC99, mexB (PA), AZT (mexB (PA) strain) | EC99, mexB (PA), LVFX (mexB (PA) strain) | EC99, mexB (PA), TC (mexB (PA) strain) | EC99, S-3769 strain, AMK (S-3769 strain) | EC99, S-3769 strain, GM (S-3769 strain) | EC99, combinational effect with AZT, mexB (PA) (mexB (PA) strain) | EC99, combinational effect with LVFX, mexB (PA) (mexB (PA) strain) | EC99, combinational effect with TC, mexB (PA) (mexB (PA) strain) | EC99, combinational effect with AMK, S-3769 strain (S-3769 strain) | EC99, combinational effect with GM, S-3769 strain (S-3769 strain)
1 | CCSc1cc(F)ccc1CN1CCN(C(=O)[C@H](N)C2CCN(CCc3cc(Cl)ccc3-c3ccccc3)CC2)CC1 [Example 30, (R)-2-amino-2-(1-(2-(4-chloro-[1,1′-biphenyl]-2-yl)ethyl)piperidin-4-yl)-1-(4-(2-(ethylthio)-4-fluorobenzyl)piperazin-1-yl)ethan-1-one] | S (EC99≤12.5 μM) | S (EC99≤12.5 μM) | S (EC99≤12.5 μM) | S (EC99≤12.5 μM) | S (EC99≤12.5 μM) |  |  |  |  | 
2 | CNc1cccc(-c2ccc(Cl)cc2CCN2CCC([C@@H](N)C(=O)N3CCN(Cc4ccccc4SC)CC3)CC2)c1 [Example 565, Hydrobromide of (R)-2-amino-2-(1-(2-(4-chloro-3′-(methylamino)-[1,1-biphenyl]-2-yl)ethyl)piperidin-4-yl)-1-(4-(2-(methylthio)benzyl)piperazin-1-yl)ethan-1-one] |  |  |  |  |  | A (12.5 μM<EC99≤25 μM) | S (EC99≤12.5 μM) | S (EC99≤12.5 μM) | B (25 μM<EC99≤100 μM) | B (25 μM<EC99≤100 μM)
3 | CCOc1ccc(O)c(F)c1CN1CCN(C(=O)[C@H](N)C2CCN(CCc3ccccc3)CC2)CC1 [Example 94, hydrobromide of (R)-2-amino-1-(4-(6-ethoxy-2-fluoro-3-hydroxybenzyl)piperazin-1-yl)-2-(1-phenethylpiperidin-4-yl)ethan-1-one] | C (100 μM<EC99) | C (100 μM<EC99) | C (100 μM<EC99) | B (25 μM<EC99≤100 μM) | B (25 μM<EC99≤100 μM) |  |  |  |  | 
4 | CCOc1cccc(F)c1CN1CCN(C(=O)[C@H](N)C2CCN(CCc3cc(Cl)ccc3-c3cncc(O)c3)CC2)CC1 [Example 572, Hydrochloride of (R)-2-amino-2-(1-(5-chloro-2-(5-hydroxypyridin-3-yl)phenethyl)piperidin-4-yl)-1-(4-(2-ethoxy-6-fluorobenzyl)piperazin-1-yl) ethan-1-one] |  |  |  |  |  | B (25 μM<EC99≤100 μM) | C (100 μM<EC99) | B (25 μM<EC99≤100 μM) | A (12.5 μM<EC99≤25 μM) | A (12.5 μM<EC99≤25 μM)
5 | CCOc1cccc(F)c1CN1CCN(C(=O)[C@H](N)C2CCN(CCc3ccccc3OC)CC2)CC1 [Example 122, Hydrochloride of (R)-2-amino-1-(4-(2-ethoxy-6-fluorobenzyl)piperazin-1-yl)-2-(1-(2-methoxyphenethyl)piperidin-4-yl)ethan-1-one] | C (100 μM<EC99) | C (100 μM<EC99) | C (100 μM<EC99) | B (25 μM<EC99≤100 μM) | A (12.5 μM<EC99≤25 μM) |  |  |  |  | 
6 | N[C@@H](C(=O)N1CCN(Cc2ccccc2B(O)O)CC1)C1CCN(CCc2cc(Cl)ccc2-c2ccccc2)CC1 [Example 521, Hydrobromide of (R)-(2-((4-(2-amino-2-(1-(2-(4-chloro-[1,1-biphenyl]-2-yl)ethyl)piperidin-4-yl)acetyl)piperazin-1-yl)methyl)phenyl)boronic acid] |  |  |  |  |  | C (100 μM<EC99) | C (100 μM<EC99) | C (100 μM<EC99) | B (25 μM<EC99≤100 μM) | B (25 μM<EC99≤100 μM)
7 | CCOc1cccc(F)c1CN1CCN(C(=O)[C@H](N)C2CCN(CCc3cc(Cl)ccc3-c3ccccc3Cl)CC2)CC1 [Example 44, (R)-2-amino-2-(1-(2-(2′,4-dichloro-[1,1′-biphenyl]-2-yl)ethyl)piperidin-4-yl)-1-(4-(2-ethoxy-6-fluorobenzyl)piperazin-1-yl)ethan-1-one] | S (EC99≤12.5 μM) | A (12.5 μM<EC99≤25 μM) | S (EC99≤12.5 μM) | S (EC99≤12.5 μM) | S (EC99≤12.5 μM) |  |  |  |  | 
8 | CCOc1cccc(F)c1CN1CCN(C(=O)[C@H](N)C2CCN(CCc3cc(Cl)ccc3-c3cccc(P(C)(C)=O)c3)CC2)CC1 [Example 58, Hydrobromide of (R)-2-amino-2-(1-(2-(4-chloro-3′-(dimethylphosphoryl)-[1,1′-biphenyl]-2-yl)ethyl)piperidin-4-yl)-1-(4-(2-ethoxy-6-fluorobenzyl)piperazin-1-yl) ethan-1-one] | C (100 μM<EC99) | C (100 μM<EC99) | C (100 μM<EC99) | A (12.5 μM<EC99≤25 μM) | B (25 μM<EC99≤100 μM) |  |  |  |  | 
9 | CCOc1cccc(F)c1CN1CCN(C(=O)[C@H](N)C2CCN(CCc3cc(Cl)ccc3-c3cccc(O)c3F)CC2)CC1 [Example 595, Hydrochloride of (R)-2-amino-2-(1-(2-(4-chloro-2-fluoro-3′-hydroxy-[1,1-biphenyl]-2-yl)ethyl)piperidin-4-yl)-1-(4-(2-ethoxy-6-fluorobenzyl)piperazin-1-yl)ethan-1-one] |  |  |  |  |  | S (EC99≤12.5 μM) | S (EC99≤12.5 μM) | S (EC99≤12.5 μM) | S (EC99≤12.5 μM) | A (12.5 μM<EC99≤25 μM)
10 | CCSc1cc(F)ccc1CN1CCN(C(=O)[C@H](N)C2CCN(CCc3cc(Cl)ccc3C3=CCNCC3)CC2)CC1 [Example 597, hydrochloride of (R)-2-amino-2-(1-(5-chloro-2-(1,2,3,6-tetrahydropyridin-4-yl)phenethyl)piperidin-4-yl)-1-(4-(2-(ethylthio)-4-fluorobenzyl)piperazin-1-yl)ethan-1-one] |  |  |  |  |  | B (25 μM<EC99≤100 μM) | S (EC99≤12.5 μM) | S (EC99≤12.5 μM) | S (EC99≤12.5 μM) | S (EC99≤12.5 μM)
11 | CCOc1cccc(F)c1CN1CCN(C(=O)[C@H](N)C2CCN(CCc3ccccc3F)CC2)CC1 [Example 121, Hydrochloride of (R)-2-amino-1-(4-(2-ethoxy-6-fluorobenzyl)piperazin-1-yl)-2-(1-(2-fluorophenethyl)piperidin-4-yl)ethan-1-one] | C (100 μM<EC99) | C (100 μM<EC99) | C (100 μM<EC99) | B (25 μM<EC99≤100 μM) | B (25 μM<EC99≤100 μM) |  |  |  |  | 
12 | CCOc1cccc(F)c1CN1CCN(C(=O)[C@H](N)C2CCN(CCc3cc(Cl)ccc3-c3cnccc3Cl)CC2)CC1 [Example 91, Hydrobromide of (R)-2-amino-2-(1-(5-chloro-2-(4-chloropyridin-3-yl)phenethyl)piperidin-4-yl)-1-(4-(2-ethoxy-6-fluorobenzyl)piperazin-1-yl) ethan-1-one] | B (25 μM<EC99≤100 μM) | C (100 μM<EC99) | B (25 μM<EC99≤100 μM) | B (25 μM<EC99≤100 μM) | B (25 μM<EC99≤100 μM) |  |  |  |  | 
13 | CCSc1cc(F)ccc1CN1CCN(C(=O)[C@H](N)C2CCN(CCc3cc(Cl)ccc3-c3cccc(F)c3)CC2)CC1 [Example 554, Hydrobromide of (R)-2-amino-2-(1-(2-(4-chloro-3′-fluoro-[1,1-biphenyl]-2-yl)ethyl)piperidin-4-yl)-1-(4-(2-(ethylthio)-4-fluorobenzyl)piperazin-1-yl)ethan-1-one] |  |  |  |  |  | S (EC99≤12.5 μM) | S (EC99≤12.5 μM) | S (EC99≤12.5 μM) | A (12.5 μM<EC99≤25 μM) | S (EC99≤12.5 μM)
